Experimental data taken from PMC12136037, “Type II kinase inhibitors that target Parkinson’s disease–associated LRRK2” (Science Advances, 2025).

Columns and labels:
Experiment in all cases: DSF 100 kinase selectivity screen;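 note: compound tested at 20 µM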
Format in all cases: binding
[1] = target: T1, ~100 representative kinases (Homo sapiens, UniProt Q9UKI8); details: Protein TLK1; DSF; average of three replicates
T1 construct: Recombinant protein kinase domains with a concentration of 2 μM
T1 sequence (Q9UKI8 1-766): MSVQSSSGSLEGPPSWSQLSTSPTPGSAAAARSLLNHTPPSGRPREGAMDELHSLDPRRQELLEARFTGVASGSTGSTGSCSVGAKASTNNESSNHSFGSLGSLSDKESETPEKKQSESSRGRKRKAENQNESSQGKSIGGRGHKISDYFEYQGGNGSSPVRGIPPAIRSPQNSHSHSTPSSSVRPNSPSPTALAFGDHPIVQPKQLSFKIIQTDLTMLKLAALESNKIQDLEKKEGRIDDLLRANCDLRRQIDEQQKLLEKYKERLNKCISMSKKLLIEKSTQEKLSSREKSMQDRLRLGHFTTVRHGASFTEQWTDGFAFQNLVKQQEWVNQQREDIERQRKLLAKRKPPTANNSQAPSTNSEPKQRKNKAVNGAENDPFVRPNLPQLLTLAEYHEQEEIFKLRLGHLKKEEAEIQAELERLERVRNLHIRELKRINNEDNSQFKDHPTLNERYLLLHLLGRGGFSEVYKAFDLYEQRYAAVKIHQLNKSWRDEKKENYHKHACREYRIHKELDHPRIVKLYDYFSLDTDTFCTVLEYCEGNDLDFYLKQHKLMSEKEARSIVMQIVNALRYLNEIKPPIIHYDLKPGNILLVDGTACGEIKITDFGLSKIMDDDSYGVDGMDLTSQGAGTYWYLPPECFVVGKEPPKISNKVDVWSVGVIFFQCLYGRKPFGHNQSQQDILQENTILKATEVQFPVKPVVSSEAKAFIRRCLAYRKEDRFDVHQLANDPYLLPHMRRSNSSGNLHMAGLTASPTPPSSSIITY
Procedure, shortened: (§1)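 Each kinase domain, at 2 μM, is mixed with 20 μM test compound and SYPRO Orange in Hepes (20 mM, pH 7.5) with 500 mM NaCl. Temperature is then raised at 3°C/min and fluorescence-monitored unfolding yields the melting temperature change, ΔTm in degrees Celsius.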

[2] = target: T2, ~100 representative kinases (Homo sapiens, UniProt Q9P289); details: protein MST4; average of three replicates
T2 construct: Recombinant protein kinase domains with a concentration of 2 μM
Procedure, shortened: as §1

[3] = target: T3, ~100 representative kinases (Homo sapiens, UniProt P53355); details: Protein DAPK1; average of three replicates
T3 construct: Recombinant protein kinase domains with a concentration of 2 μM
Procedure, shortened: as §1

[4] = target: T4, ~100 representative kinases (Homo sapiens, UniProt Q13188); details: Protein STK3; DSF; average of three replicates
T4 construct: Recombinant protein kinase domains with a concentration of 2 μM
T4 sequence (Q13188 1-491): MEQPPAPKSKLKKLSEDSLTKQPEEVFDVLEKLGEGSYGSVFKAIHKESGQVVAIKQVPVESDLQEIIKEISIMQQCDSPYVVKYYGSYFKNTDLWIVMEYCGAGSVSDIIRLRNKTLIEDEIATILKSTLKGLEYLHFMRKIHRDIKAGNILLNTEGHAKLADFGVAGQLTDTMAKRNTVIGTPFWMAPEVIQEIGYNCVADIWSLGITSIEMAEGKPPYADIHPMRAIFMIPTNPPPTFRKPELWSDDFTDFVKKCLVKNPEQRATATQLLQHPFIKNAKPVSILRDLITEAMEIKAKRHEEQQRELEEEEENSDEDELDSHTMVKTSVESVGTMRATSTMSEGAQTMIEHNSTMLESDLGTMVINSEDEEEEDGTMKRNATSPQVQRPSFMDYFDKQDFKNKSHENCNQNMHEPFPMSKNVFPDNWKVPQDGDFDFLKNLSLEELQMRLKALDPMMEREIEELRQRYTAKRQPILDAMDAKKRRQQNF
Procedure, shortened: as §1

[5] = target: T5, ~100 representative kinases (Homo sapiens, UniProt P49674); details: Protein CSNK1E; average of three replicates
T5 construct: Recombinant protein kinase domains with a concentration of 2 μM
Procedure, shortened: as §1

[6] = target: T6, ~100 representative kinases (Homo sapiens, UniProt P27448); details: protein MARK3; average of three replicates
T6 construct: Recombinant protein kinase domains with a concentration of 2 μM
Procedure, shortened: as §1

[7] = target: T7, ~100 representative kinases (Homo sapiens, UniProt Q9NSY1); details: Protein BMP2K; average of three replicates
T7 construct: Recombinant protein kinase domains with a concentration of 2 μM
Procedure, shortened: as §1

[8] = target: T8, ~100 representative kinases (Homo sapiens, UniProt Q13043); details: Protein STK4; DSF; average of three replicates
T8 construct: Recombinant protein kinase domains with a concentration of 2 μM
T8 sequence (Q13043 1-487): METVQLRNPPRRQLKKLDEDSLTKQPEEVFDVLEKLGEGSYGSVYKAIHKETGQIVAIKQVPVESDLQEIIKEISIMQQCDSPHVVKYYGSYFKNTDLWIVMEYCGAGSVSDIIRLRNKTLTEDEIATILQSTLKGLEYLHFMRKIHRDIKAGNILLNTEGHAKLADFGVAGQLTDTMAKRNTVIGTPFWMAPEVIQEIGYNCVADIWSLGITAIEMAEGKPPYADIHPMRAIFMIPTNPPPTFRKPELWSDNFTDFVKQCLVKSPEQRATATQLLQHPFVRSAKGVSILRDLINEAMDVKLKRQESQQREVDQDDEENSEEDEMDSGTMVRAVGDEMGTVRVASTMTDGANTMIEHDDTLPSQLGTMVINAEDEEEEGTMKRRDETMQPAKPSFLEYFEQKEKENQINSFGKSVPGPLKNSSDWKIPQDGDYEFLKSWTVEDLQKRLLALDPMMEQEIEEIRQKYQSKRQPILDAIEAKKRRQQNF
Procedure, shortened: as §1

[9] = target: T9, ~100 representative kinases (Homo sapiens, UniProt Q9H2X6); details: protein HIPK2; average of three replicates
T9 construct: Recombinant protein kinase domains with a concentration of 2 μM
Procedure, shortened: as §1

T2 sequence (Q9P289 whole entry, the tested form may be a part): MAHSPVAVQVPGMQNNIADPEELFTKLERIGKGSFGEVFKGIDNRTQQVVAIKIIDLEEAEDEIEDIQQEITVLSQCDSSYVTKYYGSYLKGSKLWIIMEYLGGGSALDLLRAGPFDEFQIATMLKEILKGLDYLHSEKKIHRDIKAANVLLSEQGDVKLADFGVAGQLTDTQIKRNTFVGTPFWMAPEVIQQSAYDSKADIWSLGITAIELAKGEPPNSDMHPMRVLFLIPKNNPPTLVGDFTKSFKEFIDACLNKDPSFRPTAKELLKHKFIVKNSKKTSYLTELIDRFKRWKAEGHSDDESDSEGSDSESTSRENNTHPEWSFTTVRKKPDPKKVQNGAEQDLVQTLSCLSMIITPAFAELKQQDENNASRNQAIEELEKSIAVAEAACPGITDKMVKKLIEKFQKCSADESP
T9 sequence (Q9H2X6 whole entry, the tested form may be a part): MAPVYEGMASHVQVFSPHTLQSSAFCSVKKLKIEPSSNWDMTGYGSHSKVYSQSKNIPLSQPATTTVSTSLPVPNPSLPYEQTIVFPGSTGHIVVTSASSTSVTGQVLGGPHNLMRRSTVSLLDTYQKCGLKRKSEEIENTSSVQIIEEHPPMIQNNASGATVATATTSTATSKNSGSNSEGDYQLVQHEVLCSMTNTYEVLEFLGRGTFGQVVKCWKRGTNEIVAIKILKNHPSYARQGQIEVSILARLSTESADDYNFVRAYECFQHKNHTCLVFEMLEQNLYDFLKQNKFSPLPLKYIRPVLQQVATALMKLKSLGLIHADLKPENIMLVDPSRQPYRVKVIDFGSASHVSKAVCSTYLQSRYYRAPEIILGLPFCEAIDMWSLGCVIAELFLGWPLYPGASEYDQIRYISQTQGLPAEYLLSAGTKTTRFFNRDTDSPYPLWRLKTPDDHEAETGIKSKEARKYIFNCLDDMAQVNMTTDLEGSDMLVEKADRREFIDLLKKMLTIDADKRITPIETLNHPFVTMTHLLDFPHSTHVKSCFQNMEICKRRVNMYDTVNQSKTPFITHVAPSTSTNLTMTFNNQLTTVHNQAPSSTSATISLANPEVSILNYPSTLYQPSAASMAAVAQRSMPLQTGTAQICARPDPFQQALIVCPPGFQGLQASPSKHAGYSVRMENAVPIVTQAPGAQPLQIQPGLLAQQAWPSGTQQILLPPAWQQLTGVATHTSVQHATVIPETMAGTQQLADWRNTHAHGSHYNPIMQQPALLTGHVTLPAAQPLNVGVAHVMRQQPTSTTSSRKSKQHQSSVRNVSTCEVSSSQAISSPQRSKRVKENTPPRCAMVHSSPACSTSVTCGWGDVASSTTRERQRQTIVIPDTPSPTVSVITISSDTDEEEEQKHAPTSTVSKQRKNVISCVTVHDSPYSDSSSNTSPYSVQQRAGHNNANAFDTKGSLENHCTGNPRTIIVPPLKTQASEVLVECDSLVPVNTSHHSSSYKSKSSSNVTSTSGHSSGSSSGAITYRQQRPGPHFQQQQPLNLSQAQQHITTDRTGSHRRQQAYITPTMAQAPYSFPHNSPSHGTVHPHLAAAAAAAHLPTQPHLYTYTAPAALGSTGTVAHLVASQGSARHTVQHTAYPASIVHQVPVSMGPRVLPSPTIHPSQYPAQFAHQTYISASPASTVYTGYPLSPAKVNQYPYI
T7 sequence (Q9NSY1 whole entry, the tested form may be a part): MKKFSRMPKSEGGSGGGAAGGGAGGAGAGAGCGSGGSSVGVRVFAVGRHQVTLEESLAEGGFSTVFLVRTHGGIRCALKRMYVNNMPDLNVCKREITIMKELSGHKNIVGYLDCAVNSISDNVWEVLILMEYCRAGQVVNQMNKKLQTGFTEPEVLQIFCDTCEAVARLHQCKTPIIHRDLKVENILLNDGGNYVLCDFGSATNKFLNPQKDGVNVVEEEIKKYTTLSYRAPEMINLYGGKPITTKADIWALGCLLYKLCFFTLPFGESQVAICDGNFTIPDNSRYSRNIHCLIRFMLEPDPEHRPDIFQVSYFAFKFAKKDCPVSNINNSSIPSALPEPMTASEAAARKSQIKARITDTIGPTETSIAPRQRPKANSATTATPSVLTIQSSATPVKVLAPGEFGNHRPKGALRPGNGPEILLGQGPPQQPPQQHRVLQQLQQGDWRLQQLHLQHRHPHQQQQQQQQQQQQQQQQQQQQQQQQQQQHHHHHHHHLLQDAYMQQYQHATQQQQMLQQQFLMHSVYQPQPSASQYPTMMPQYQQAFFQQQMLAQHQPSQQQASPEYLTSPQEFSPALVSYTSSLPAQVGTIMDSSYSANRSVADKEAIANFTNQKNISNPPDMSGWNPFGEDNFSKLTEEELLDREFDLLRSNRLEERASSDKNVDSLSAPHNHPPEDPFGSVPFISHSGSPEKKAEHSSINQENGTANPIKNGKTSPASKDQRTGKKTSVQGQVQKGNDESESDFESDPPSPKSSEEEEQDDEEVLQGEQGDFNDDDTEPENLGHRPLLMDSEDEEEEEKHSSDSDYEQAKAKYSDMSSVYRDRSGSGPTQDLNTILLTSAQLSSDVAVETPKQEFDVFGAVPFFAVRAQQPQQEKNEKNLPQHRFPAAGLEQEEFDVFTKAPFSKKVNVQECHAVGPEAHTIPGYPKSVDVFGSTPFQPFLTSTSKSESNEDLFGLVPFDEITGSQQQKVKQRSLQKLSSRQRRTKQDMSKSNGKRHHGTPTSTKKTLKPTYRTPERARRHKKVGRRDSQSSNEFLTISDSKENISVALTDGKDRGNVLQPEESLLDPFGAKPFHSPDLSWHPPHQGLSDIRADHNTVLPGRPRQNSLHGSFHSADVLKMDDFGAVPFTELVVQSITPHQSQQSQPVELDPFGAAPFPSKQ
T5 sequence (P49674 whole entry, the tested form may be a part): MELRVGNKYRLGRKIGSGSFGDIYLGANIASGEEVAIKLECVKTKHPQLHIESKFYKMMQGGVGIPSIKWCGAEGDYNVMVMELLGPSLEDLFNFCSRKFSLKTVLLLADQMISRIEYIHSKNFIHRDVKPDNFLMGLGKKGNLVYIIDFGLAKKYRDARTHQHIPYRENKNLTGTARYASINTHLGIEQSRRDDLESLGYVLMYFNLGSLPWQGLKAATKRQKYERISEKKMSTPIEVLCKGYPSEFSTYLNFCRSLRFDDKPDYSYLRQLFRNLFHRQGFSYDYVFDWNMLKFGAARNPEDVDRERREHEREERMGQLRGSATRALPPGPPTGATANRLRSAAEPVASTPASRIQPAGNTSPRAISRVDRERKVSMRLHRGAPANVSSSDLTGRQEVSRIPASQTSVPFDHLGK
T3 sequence (P53355 whole entry, the tested form may be a part): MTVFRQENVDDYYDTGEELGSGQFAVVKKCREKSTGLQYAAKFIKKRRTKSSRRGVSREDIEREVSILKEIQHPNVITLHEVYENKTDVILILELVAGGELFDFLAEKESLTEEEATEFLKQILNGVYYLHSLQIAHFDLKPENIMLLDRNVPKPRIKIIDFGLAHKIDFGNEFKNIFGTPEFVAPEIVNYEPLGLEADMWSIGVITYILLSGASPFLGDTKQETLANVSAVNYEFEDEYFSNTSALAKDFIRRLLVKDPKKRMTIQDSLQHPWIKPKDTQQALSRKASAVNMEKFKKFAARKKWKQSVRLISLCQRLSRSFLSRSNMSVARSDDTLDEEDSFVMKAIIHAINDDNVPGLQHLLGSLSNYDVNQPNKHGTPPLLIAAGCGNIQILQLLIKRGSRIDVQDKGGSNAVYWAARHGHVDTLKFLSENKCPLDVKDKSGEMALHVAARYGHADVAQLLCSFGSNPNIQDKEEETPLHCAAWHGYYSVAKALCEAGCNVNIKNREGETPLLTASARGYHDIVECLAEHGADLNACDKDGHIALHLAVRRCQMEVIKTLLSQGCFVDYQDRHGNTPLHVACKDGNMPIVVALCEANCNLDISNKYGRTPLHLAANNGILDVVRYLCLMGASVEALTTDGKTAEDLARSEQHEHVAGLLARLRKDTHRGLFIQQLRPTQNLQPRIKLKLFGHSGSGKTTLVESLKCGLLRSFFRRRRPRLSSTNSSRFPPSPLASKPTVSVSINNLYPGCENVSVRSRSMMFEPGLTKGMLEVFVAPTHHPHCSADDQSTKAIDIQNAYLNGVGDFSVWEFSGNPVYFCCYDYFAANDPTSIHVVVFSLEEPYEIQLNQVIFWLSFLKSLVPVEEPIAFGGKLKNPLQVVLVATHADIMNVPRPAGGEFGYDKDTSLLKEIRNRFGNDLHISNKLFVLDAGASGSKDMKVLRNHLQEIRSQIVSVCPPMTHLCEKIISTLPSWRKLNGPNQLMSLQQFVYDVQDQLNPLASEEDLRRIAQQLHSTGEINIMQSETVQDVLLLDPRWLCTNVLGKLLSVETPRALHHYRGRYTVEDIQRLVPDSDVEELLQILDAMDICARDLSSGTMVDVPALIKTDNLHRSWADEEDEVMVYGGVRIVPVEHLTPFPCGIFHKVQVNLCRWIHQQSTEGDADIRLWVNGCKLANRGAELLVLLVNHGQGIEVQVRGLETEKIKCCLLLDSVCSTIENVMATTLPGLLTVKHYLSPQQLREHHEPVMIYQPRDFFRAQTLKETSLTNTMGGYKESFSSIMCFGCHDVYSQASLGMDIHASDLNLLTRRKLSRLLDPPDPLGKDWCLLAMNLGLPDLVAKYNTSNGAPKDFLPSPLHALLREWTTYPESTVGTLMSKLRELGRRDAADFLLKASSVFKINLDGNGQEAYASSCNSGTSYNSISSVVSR

Row | Compound | dTm [1] [K] | dTm [2] [K] | dTm [3] [K] | dTm [4] [K] | dTm [5] [K] | dTm [6] [K] | dTm [7] [K] | dTm [8] [K] | dTm [9] [K]
1 | CC(C)(C)c1cc(NC(=O)Nc2cccc(-c3c[nH]c4ncnc(N5CCOCC5)c34)c2)n(-c2ccc3ncccc3c2)n1 [Compound 28] | 0.24 | 6.29 | 2.32 | 10.40 | 1.81 | 5.67 | 6.24 | 8.26 | 9.47
2 | COc1cc(C(=O)N2CCOCC2)c(F)cc1Nc1nc(N(C)C)c2c(Cl)c[nH]c2n1 [Compound 36] | -1.95 | -3.37 | 3.45 | -0.64 | 4.43 | -1.24 | 1.71 | -1.57 | 0.93
